From ChEMBL document CHEMBL3414466, “Synthesis and anticancer activity of N-substituted 2-arylquinazolinones bearing trans-stilbene scaffold” (Eur J Med Chem, 2015) come the findings set out here.

One may read the IC50 as the point on the concentration scale where inhibition reaches its midpoint. Low values mean higher potency, high ones lower potency.

Calls of active or inactive are those of the source. No cut-off for these calls is given here.

The test system of assay [1] is MCF7. Put plainly: Cytotoxicity against human MCF7 cells by MTT assay. In kind it is functional, cell-based. For orientation: Formazan colour is commonly taken as a measure of viable cells.
The subject of assay [2] is MDA-MB-231. Kind of assay: Cytotoxicity against human MDA-MB-231 cells by MTT assay. In kind it is functional, cell-based.
Assay [3] relates to T47D. Kind of assay: Cytotoxicity against human T47D cells by MTT assay. The format is functional, cell-based.
Assay [4] has as its system MCF7. Kind of assay: Potency index, ratio of etoposide IC50 to compound IC50 for human MCF7 cells. In kind it is functional.
The test system of assay [5] is MDA-MB-231. Put plainly: Potency index, ratio of etoposide IC50 to compound IC50 for human MDA-MB-231 cells. In kind it is functional.
The subject of assay [6] is T47D. Put plainly: Potency index, ratio of etoposide IC50 to compound IC50 for human T47D cells. In kind it is functional.
For assay [7], the system named is MCF7. Kind of assay: Induction of apoptosis in human MCF7 cells assessed as change in morphology at IC50 after 24 hrs by acridine orange/ethidium bromide staining-based fluorescence microscopic analysis. In kind it is functional, cell-based.
Assay [8] has as its system MDA-MB-231. Kind of assay: Induction of apoptosis in human MDA-MB-231 cells assessed as change in morphology at IC50 after 24 hrs by acridine orange/ethidium bromide staining-based fluorescence microscopic analysis. In kind it is functional, cell-based.
Assay [9] deals with MDA-MB-231. Kind of assay: Induction of apoptosis in human MDA-MB-231 cells assessed as early apoptotic cells at IC50 after 12 hrs by annexin V-FITC/propidium iodide staining-based flow cytometric analysis (reference value: 3.82%). The format is functional. On the technique in general: Flow cytometry measures light scatter and fluorescence of single cells or particles in a stream.

For assay [10], the system named is MDA-MB-231. Put plainly: Induction of apoptosis in human MDA-MB-231 cells assessed as late apoptotic cells at IC50 after 12 hrs by annexin V-FITC/propidium iodide staining-based flow cytometric analysis (reference value: 0.01%). In kind it is functional.
For assay [11], the system named is MDA-MB-231. Put plainly: Induction of apoptosis in human MDA-MB-231 cells assessed as necrotic cells at IC50 after 12 hrs by annexin V-FITC/propidium iodide staining-based flow cytometric analysis (reference value: 0.97%). In kind it is functional.
The subject of assay [12] is MDA-MB-231. Kind of assay: Induction of apoptosis in human MDA-MB-231 cells assessed as viable cells at IC50 after 12 hrs by annexin V-FITC/propidium iodide staining-based flow cytometric analysis (reference value: 95.2%). In kind it is functional.
Assay [13] has as its system MCF7. Kind of assay: Induction of apoptosis in human MCF7 cells assessed as early apoptotic cells at IC50 after 12 hrs by annexin V-FITC/propidium iodide staining-based flow cytometric analysis (reference value: 2.49%). In kind it is functional.
Assay [14] relates to MCF7. Put plainly: Induction of apoptosis in human MCF7 cells assessed as late apoptotic cells at IC50 after 12 hrs by annexin V-FITC/propidium iodide staining-based flow cytometric analysis relative to control. The format is functional.
In assay [15] the test system is MCF7. Put plainly: Induction of apoptosis in human MCF7 cells assessed as necrotic cells at IC50 after 12 hrs by annexin V-FITC/propidium iodide staining-based flow cytometric analysis (reference value: 0.29%). The format is functional.
Assay [16] concerns MCF7. Kind of assay: Induction of apoptosis in human MCF7 cells assessed as viable cells at IC50 after 12 hrs by annexin V-FITC/propidium iodide staining-based flow cytometric analysis (reference value: 97.23%). In kind it is functional.

In the case of `CCC(C)n1c(-c2ccccc2/C=C/c2ccccc2)nc2ccccc2c1=O` (stereo not drawn), the IC50 in the assay with MCF7 [1] was determined as 3.8 µM; in the assay on MDA-MB-231 [2] it was 4.9 µM; with T47D [3] it was 3.6 µM. Moreover, the “Ratio IC50” value with MCF7 [4], in the assay with MDA-MB-231 [5] and with T47D [6] was 2 each time. The outcome in the assay on MCF7 [7] and in the assay with MDA-MB-231 [8] was Active. Besides, the Activity in the assay with MDA-MB-231 [9] stood at 16.55%; in the assay on MDA-MB-231 [10], 2.27%; with MDA-MB-231 [11] it was 0.97%; with MDA-MB-231 [12] it was 80.2%; in the assay on MCF7 [13], 26.45%; with MCF7 [14], 1.95%. The Activity in the assay on MCF7 [15] came out at 2.14%; with MCF7 [16] it was 69.46%.

Turning to `CCn1c(-c2ccccc2/C=C/c2ccccc2)nc2ccccc2c1=O`, the IC50 in the assay on MCF7 [1] came to 8.7 µM; in the assay on MDA-MB-231 [2], 8.4 µM; in the assay on T47D [3], 10.2 µM.

In the case of `COc1ccc(Cn2c(-c3ccccc3/C=C/c3ccccc3)nc3ccccc3c2=O)cc1`, the IC50 in the assay on MCF7 [1], with MDA-MB-231 [2] and in the assay on T47D [3] was greater than 100 µM each time.

On to `Cc1ccc(Cn2c(-c3ccccc3/C=C/c3ccccc3)nc3ccccc3c2=O)cc1`, for which the figures for the IC50 with MCF7 [1], in the assay with MDA-MB-231 [2] and in the assay with T47D [3] were 24.7 µM, 23.8 µM and 28.2 µM, respectively.

Take `CCCn1c(-c2ccccc2/C=C/c2ccccc2)nc2ccccc2c1=O`: the IC50 in the assay with MCF7 [1] is 29.4 µM; with MDA-MB-231 [2] it was greater than 100 µM; in the assay with T47D [3], greater than 100 µM.

For `COc1cc([C@@H]2c3cc4c(cc3[C@@H](O[C@@H]3O[C@@H]5CO[C@@H](C)O[C@H]5[C@H](O)[C@H]3O)[C@H]3COC(=O)[C@H]23)OCO4)cc(OC)c1O` [ETOPOSIDE], the values for the IC50 with MDA-MB-231 [2] and in the assay with T47D [3] were 10.3 µM and 8.9 µM, respectively. Also, the Activity with MDA-MB-231 [9] amounted to 22.41%; in the assay with MDA-MB-231 [10], 0.8%; with MDA-MB-231 [11], 0.27%; with MDA-MB-231 [12], 76.53%; in the assay on MCF7 [13] it was 36.92%; in the assay on MCF7 [14], 0.08%. The Activity with MCF7 [15] amounted to 0.1%; in the assay on MCF7 [16], 62.89%.

Take `CC(C)Cn1c(-c2ccccc2/C=C/c2ccccc2)nc2ccccc2c1=O`: the IC50 stood at 23.3 µM in the assay on MCF7 [1], 6.9 µM with MDA-MB-231 [2] and 9.3 µM in the assay on T47D [3].

As for `O=c1c2ccccc2nc(-c2ccccc2/C=C/c2ccccc2)n1Cc1ccccc1`, the IC50 in the assay with MCF7 [1], in the assay with MDA-MB-231 [2] and in the assay with T47D [3] was greater than 100 µM each time.

In the case of `O=c1c2ccccc2nc(-c2ccccc2/C=C/c2ccccc2)n1C1CC1`, the values for the IC50 in the assay with MCF7 [1], with MDA-MB-231 [2] and in the assay with T47D [3] were 5.3 µM, 5.5 µM and 6.8 µM, respectively. Further, the outcome in the assay with MCF7 [7] and with MDA-MB-231 [8] was Active. Besides, the Activity is 22.41% in the assay with MDA-MB-231 [9]; 3.09% in the assay with MDA-MB-231 [10]; 4.37% in the assay on MDA-MB-231 [11]; 70.13% in the assay on MDA-MB-231 [12]; 25.88% in the assay with MCF7 [13]; 0.77% in the assay with MCF7 [14]. For the same compound, the results for the Activity in the assay on MCF7 [15] and in the assay with MCF7 [16] were 0.59% and 72.75%, respectively.

Take `Cc1ccc(-n2c(-c3ccccc3/C=C/c3ccccc3)nc3ccccc3c2=O)cc1`: the IC50 in the assay on MCF7 [1], in the assay on MDA-MB-231 [2] and in the assay with T47D [3] was greater than 100 µM in each case.

Consider `COc1ccc(-n2c(-c3ccccc3/C=C/c3ccccc3)nc3ccccc3c2=O)cc1`, for which the IC50 with MCF7 [1], in the assay with MDA-MB-231 [2] and with T47D [3] was greater than 100 µM throughout.

`CCCCn1c(-c2ccccc2/C=C/c2ccccc2)nc2ccccc2c1=O`: the IC50 with MCF7 [1] came out at 9.8 µM; in the assay with MDA-MB-231 [2], 4 µM; with T47D [3], 7.9 µM.

For `O=c1c2ccccc2nc(-c2ccccc2/C=C/c2ccccc2)n1C1CCCC1`, the IC50 with MCF7 [1], in the assay on MDA-MB-231 [2] and with T47D [3] was greater than 100 µM each time.

With `CC(C)n1c(-c2ccccc2/C=C/c2ccccc2)nc2ccccc2c1=O`, the 50% inhibitory concentration (IC50) in the assay with MCF7 [1] was 6.7 µM; in the assay on MDA-MB-231 [2] it was 8.4 µM; with T47D [3] it was 6.2 µM.

Consider `O=c1c2ccccc2nc(-c2ccccc2/C=C/c2ccccc2)n1-c1ccccc1`, for which the IC50 was 44.9 µM with MCF7 [1], greater than 100 µM with MDA-MB-231 [2] and greater than 100 µM in the assay with T47D [3].

Regarding `C=CCn1c(-c2ccccc2/C=C/c2ccccc2)nc2ccccc2c1=O`, the IC50 with MCF7 [1] was 10.3 µM; in the assay on MDA-MB-231 [2] it was 4.1 µM; in the assay on T47D [3] it was 5.8 µM.
